PMC4869175, “Evidence that phytochrome functions as a protein kinase in plant light signalling” (Nature Communications, 2016)
Where a chain is given by its changes, count along the chain named. Names and notes keep the numbering of the source.

B1: Avena sativa phytochrome A, full-length wild type (natural protein, UniProt P06593 1-1129, looked up)
chain: MSSSRPASSSSSRNRQSSQARVLAQTTLDAELNAEYEESGDSFDYSKLVEAQRDGPPVQQGRSEKVIAYLQHIQKGKLIQTFGCLLALDEKSFNVIAFSENAPEMLTTVSHAVPSVDDPPRLGIGTNVRSLFSDQGATALHKALGFADVSLLNPILVQCKTSGKPFYAIVHRATGCLVVDFEPVKPTEFPATAAGALQSYKLAAKAISKIQSLPGGSMEVLCNTVVKEVFDLTGYDRVMAYKFHEDDHGEVFSEITKPGLEPYLGLHYPATDIPQAARLLFMKNKVRMICDCRARSIKVIEAEALPFDISLCGSALRAPHSCHLQYMENMNSIASLVMAVVVNENEEDDEAESEQPAQQQKKKKLWGLLVCHHESPRYVPFPLRYACEFLAQVFAVHVNREFELEKQLREKNILKMQTMLSDMLFREASPLTIVSGTPNIMDLVKCDGAALLYGGKVWRLRNAPTESQIHDIAFWLSDVHRDSTGLSTDSLHDAGYPGAAALGDMICGMAVAKINSKDILFWFRSHTAAEIRWGGAKNDPSDMDDSRRMHPRLSFKAFLEVVKMKSLPWSDYEMDAIHSLQLILRGTLNDASKPKREASLDNQIGDLKLDGLAELQAVTSEMVRLMETATVPILAVDGNGLVNGWNQKAAELTGLRVDDAIGRHILTLVEDSSVPVVQRMLYLALQGKEEKEVRFEVKTHGPKRDDGPVILVVNACASRDLHDHVVGVCFVAQDMTVHKLVMDKFTRVEGDYKAIIHNPNPLIPPIFGADEFGWCSEWNAAMTKLTGWNRDEVLDKMLLGEVFDSSNASCPLKNRDAFVSLCVLINSALAGEETEKAPFGFFDRSGKYIECLLSANRKENEGGLITGVFCFIHVASHELQHALQVQQASEQTSLKRLKAFSYMRHAINNPLSGMLYSRKALKNTDLNEEQMKQIHVGDNCHHQINKILADLDQDSITEKSSCLDLEMAEFLLQDVVVAAVSQVLITCQGKGIRISCNLPERFMKQSVYGDGVRLQQILSDFLFISVKFSPVGGSVEISSKLTKNSIGENLHLIDLELRIKHQGLGVPAELMAQMFEEDNKEQSEEGLSLLVSRNLLRLMNGDVRHLREAGVSTFIITAELASAPTAMGQ
modifications: phycocyanobilin chromophore assembled (chromophore-binding site C322)
notes: Avena sativa (oat) phytochrome A, full-length gene AsPHYA; 1129 residues by the printed construct limits (66-1129aa); Used as Pr (far-red irradiated) and Pfr (red irradiated) forms; also called AsphyA; FL-AsphyA; source: phycocyanobilin added in vitro
B2: GST/strep-fused Arabidopsis PIF4 (natural protein, UniProt Q8W2F3 1-430, looked up)
chain: MEHQGWSFEENYSLSTNRRSIRPQDELVELLWRDGQVVLQSQTHREQTQTQKQDHHEEALRSSTFLEDQETVSWIQYPPDEDPFEPDDFSSHFFSTMDPLQRPTSETVKPKSSPEPPQVMVKPKACPDPPPQVMPPPKFRLTNSSSGIRETEMEQYSVTTVGPSHCGSNPSQNDLDVSMSHDRSKNIEEKLNPNASSSSGGSSGCSFGKDIKEMASGRCITTDRKRKRINHTDESVSLSDAIGNKSNQRSGSNRRSRAAEVHNLSERRRRDRINERMKALQELIPHCSKTDKASILDEAIDYLKSLQLQLQVMWMGSGMAAAAASAPMMFPGVQPQQFIRQIQSPVQLPRFPVMDQSAIQNNPGLVCQNPVQNQIISDRFARYIGGFPHMQAATQMQPMEMLRFSSPAGQQSQQPSSVPTKTTDGSRLDH
notes: Arabidopsis PIF4 (NM_180050); not shown: GST, N-terminal, kept
B3: AsphyA T418D, full length (natural protein, Avena sativa, UniProt P06593 1-1129, looked up)
chain: B1 chain with T418D
modifications: phycocyanobilin chromophore assembled
notes: Avena sativa phytochrome A, full length, with T418D; source: phycocyanobilin added in vitro
B4: AsphyA K411L, full length (natural protein, Avena sativa, UniProt P06593 1-1129, looked up)
chain: B1 chain with K411L
modifications: phycocyanobilin chromophore assembled
notes: Avena sativa phytochrome A, full length, with K411L; source: phycocyanobilin added in vitro
B5: AsphyA D422R, full length (natural protein, Avena sativa, UniProt P06593 1-1129, looked up)
chain: B1 chain with D422R
modifications: phycocyanobilin chromophore assembled
notes: Avena sativa phytochrome A, full length, with D422R; source: phycocyanobilin added in vitro

Tests used:
[1] = target: T1, full-length AsphyA (Avena sativa, UniProt P06593); experiment: Binding parameters of ATP by Scatchard plot using BODIPY-FL-ATP
T1 construct: Full-length phytochrome genes of AsPHYA; made in house; host or cells: Pichia pastoris GS115
T1 sequence (P06593 1-1129): B1 chain
Description: (§1) To estimate dissociation constant (Kd) and the number of binding sites (n) of ATP in AsphyA proteins, an ATP analogue BODIPY-FL-ATP (BODIPY FL 2′-(or-3′)-O-(N-(2-aminoethyl)urethane) adenosine triphosphate; Molecular Probes) was used. 0.5 μM AsphyA proteins were incubated with increasing concentration of BODIPY-FL-ATP (0.5–5 μM) for 10 min at 30 °C, and free (unbound) ATP analogue was separated from the ATP analogue-protein complex by using Amicon Ultra Centrifugal Filter with MWCO of 10,000 Da for 5 min at 4,000g. The spectrophotometric absorbance was then measured to determine the BODIPY-FL-ATP concentrations within flow-through and the complex solutions by using Shimadzu UV-1800 spectrophotometer. […] The concentrations of BODIPY-FL-ATP were also double-checked by measuring the emission intensity of BODIPY fluorophore at the excitation wavelength of 500 nm and emission wavelength of 515 nm. The fluorescence of free BODIPY-FL-ATP in the absence of any protein component was used as a linear standard curve. The Kd and n values were then calculated by a Scatchard plot of r/[BODIPY-FL-ATP]free versus r, where r is the molar ratio of [BODIPY-FL-ATP]bound to [AsphyA]total.
(§2) Supplementary Figure 12. Determination of binding parameters of ATP in AsphyA proteins. The number of binding sites (n) and dissociation constant (Kd) of ATP in AsphyA proteins were determined by Scatchard plots using an ATP analogue, BODIPY-FL-ATP (BODIPY® FL 2′-(or-3′)-O-(N-(2-aminoethyl)urethane) adenosine triphosphate). The n and Kd values were calculated from the slopes (-1/Kd) and x-axis intercepts (n) of the Scatchard plot of r/[BODIPY-FL-ATP]free versus r, where r was the molar ratio of [BODIPY-FL-ATP]bound to [AsphyA]total. The n values of full-length (FL) AsphyA and photosensory core (66-610) were both calculated at around one per polypeptide, and the Kd values were calculated at approximately 0.87 × 10^-6 M for FL-AsphyA, 0.72 × 10^-6 M for […]
(§3) level, possibly due to too low ATP binding.
(§4) (1 picture or pasted object on this page, not shown here)

[2] = target: T2, photosensory core of AsphyA (66-610) (Avena sativa, UniProt P06593); experiment: as above
T2 construct: the PAS-GAF-PHY photosensory core (66–610aa) were also cloned into pPIC3.5K; made in house; host or cells: Pichia pastoris GS115
T2 sequence (P06593 66-610): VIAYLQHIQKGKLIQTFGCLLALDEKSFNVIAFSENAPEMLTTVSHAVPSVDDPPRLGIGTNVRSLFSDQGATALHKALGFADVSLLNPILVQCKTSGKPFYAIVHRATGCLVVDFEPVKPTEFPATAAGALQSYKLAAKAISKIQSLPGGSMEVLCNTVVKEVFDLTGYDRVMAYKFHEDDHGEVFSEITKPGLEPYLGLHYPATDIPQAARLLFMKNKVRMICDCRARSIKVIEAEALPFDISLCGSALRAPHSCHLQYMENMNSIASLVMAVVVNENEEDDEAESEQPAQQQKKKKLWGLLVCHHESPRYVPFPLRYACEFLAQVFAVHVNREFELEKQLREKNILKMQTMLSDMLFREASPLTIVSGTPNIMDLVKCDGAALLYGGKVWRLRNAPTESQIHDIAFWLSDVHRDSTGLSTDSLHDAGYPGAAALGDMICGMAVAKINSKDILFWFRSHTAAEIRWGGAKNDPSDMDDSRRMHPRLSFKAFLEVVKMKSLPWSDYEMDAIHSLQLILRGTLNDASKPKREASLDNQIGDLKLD
Description: as §1, §2, §3, §4

[3] = target: T3, D422R AsphyA mutant (Avena sativa, UniProt P06593, D422R); experiment: as above; details: Scatchard plot with BODIPY-FL-ATP; result in words
T3 construct: After preparing purified full-length AsphyA mutants; made in house; host or cells: Pichia pastoris GS115
T3 sequence (P06593 whole entry D422R): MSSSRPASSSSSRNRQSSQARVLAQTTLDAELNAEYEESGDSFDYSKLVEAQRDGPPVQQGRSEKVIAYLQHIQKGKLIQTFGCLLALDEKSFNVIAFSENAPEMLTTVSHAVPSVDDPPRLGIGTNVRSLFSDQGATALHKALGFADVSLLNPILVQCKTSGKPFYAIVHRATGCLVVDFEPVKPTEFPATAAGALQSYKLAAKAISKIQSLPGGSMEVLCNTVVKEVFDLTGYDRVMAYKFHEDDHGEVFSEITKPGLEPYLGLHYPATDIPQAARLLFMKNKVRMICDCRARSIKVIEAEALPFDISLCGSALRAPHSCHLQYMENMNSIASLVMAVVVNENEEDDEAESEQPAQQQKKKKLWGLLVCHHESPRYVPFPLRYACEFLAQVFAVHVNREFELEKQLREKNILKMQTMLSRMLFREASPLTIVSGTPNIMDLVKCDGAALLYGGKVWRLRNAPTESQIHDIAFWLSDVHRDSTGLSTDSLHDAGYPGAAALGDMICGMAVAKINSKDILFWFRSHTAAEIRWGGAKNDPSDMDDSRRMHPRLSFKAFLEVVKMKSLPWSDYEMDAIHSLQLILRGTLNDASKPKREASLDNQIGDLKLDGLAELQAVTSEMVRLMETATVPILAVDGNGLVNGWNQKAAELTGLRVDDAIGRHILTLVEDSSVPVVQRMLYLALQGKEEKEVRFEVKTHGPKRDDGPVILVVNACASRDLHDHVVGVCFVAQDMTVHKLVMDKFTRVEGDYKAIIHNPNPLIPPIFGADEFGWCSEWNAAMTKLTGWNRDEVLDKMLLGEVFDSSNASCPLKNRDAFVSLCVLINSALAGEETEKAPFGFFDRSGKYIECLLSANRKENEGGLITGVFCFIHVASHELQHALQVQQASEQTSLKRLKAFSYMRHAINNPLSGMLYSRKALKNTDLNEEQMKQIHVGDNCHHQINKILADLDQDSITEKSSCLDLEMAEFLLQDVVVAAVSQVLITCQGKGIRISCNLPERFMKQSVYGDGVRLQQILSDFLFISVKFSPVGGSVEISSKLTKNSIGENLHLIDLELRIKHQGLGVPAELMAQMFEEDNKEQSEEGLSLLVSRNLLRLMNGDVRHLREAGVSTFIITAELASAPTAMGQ
Description: as §1, §2, §3, §4

[4] = target: T4, K411L AsphyA mutant (Avena sativa, UniProt P06593, K411L); experiment: as above
T4 construct: After preparing purified full-length AsphyA mutants; made in house; host or cells: Pichia pastoris GS115
T4 sequence (P06593 whole entry K411L): as the sequence (P06593 whole entry D422R) above, with K411L, R422D counted along it
Description: as §1, §2, §3, §4

[5] = target: T5, T418D AsphyA mutant (Avena sativa, UniProt P06593, T418D); experiment: as above
T5 construct: After preparing purified full-length AsphyA mutants; made in house; host or cells: Pichia pastoris GS115
T5 sequence (P06593 whole entry T418D): as the sequence (P06593 whole entry D422R) above, with T418D, R422D counted along it
Description: as §1, §2, §3, §4

[6] = target: the molecule itself; experiment: SEC; size-exclusion chromatography of purified full-length AsphyA proteins; molecular masses estimated
[7] = target: B1; experiment: pull-down; GST/strep-fused interacting protein (1.0 μg) held on glutathione resin, phytochrome (1.0 μg) in solution, Pr and Pfr forms both tested; 60 min at 4 °C in pull-down buffer (100 mM Tris-HCl pH 7.8, 1 mM EDTA, 150 mM NaCl, 100 μg/ml BSA); western blot with oat22 and anti-GST; details: both partners purified
[8] = Scatchard plot with BODIPY-FL-ATP
[9] = Scatchard plot, 0.5 μM protein, BODIPY-FL-ATP 0.5–5 μM, 10 min at 30 °C, read-out: dissociation constant (Kd) of ATP

Q: `CC1=CC(C)=[N+]2C1=Cc1ccc(CCC(=O)NCCNC(=O)O[C@H]3[C@@H](O)[C@H](n4cnc5c(N)ncnc54)O[C@@H]3COP(=O)(O)OP(=O)(O)OP(=O)(O)O)n1[B-]2(F)F` [BODIPY-FL-ATP, BODIPY FL 2′-(or-3′)-O-(N-(2-aminoethyl)urethane) adenosine triphosphate] was tested. Which “number of binding sites (n) of ATP” value [1, 8] did it give?
A: approximately one

Q: And the Kd [1, 9]?
A: ~870 nM

Q: What about the “number of binding sites (n) of ATP” value [2, 8] of the same molecule?
A: approximately one

Q: And the Kd [2, 9]?
A: 720 nM

Q: What about the “dissociation constant (Kd) of ATP” value [3] of the same molecule?
A: unable to obtain the Kd value

Q: And the Kd [4]?
A: ~1320 nM

Q: What about the Kd [5] of the same molecule?
A: ~4760 nM

Q: Does B1 bind [6]?
A: binds

Q: Does B2 bind [7]?
A: binds

Q: How did the “stoichiometry N” value [6] turn out when B3 was run?
A: 2

Q: Which “stoichiometry N” value [6] does the source give for B4 here?
A: 2

Q: With B5 as the molecule, how does the “stoichiometry N” value [6] read?
A: 2
